Patent US8367843B2, “Phenol derivative” (Fuji Yakuhin Co., Ltd., priority 2009, dated 2013)

How the values were obtained:
Type in all cases: in vivo
[1] = test system: male Wistar/ST rats (pyrazinamide model); test: Uricosuric action in rat pyrazinamide model; conditions: urinary uric acid/creatinine ratio as percentage to control, test substance 30 mg/kg oral, 30 min after pyrazinamide 400 mg/kg, urine collected 2 to 3 hours after administration, read-out: Uricosuric action (control = 100)
Experimental: Uricosuric Action in Rat Pyrazinamide Model
Pyrazinamide suspended in a 0.5% methyl cellulose solution (0.5% MC) was orally administered to 7- and 8-week-old male Wistar/ST rats (4 rats per group) fasted for about 16 hours in a dose of 400 mg/kg. After 30 minutes, a test substance suspended in 0.5% MC was orally administered in a dose of 30 mg/kg, and urine was collected for 1 hour in a range from 2 to 3 hours after administration. At the beginning of collection of urine and after completion of collection of urine, rats were forced to urinate by pressing the abdomen of the rat. The concentration of uric acid and that of creatinine in urine were measured by a kit, and a ratio of the concentration of uric acid to that of creatinine was used as an indicator of a uricosuric action. The action of each test substance was expressed by percentage to control.

[2] = Concentration of unchanged compound in urine in rat; conditions: 3 mg/kg oral, fasted male Wistar/ST rats, urine collected for 4 hours after administration, HPLC
Experimental: Concentration of Unchanged Compound in Urine in Rat
A test substance suspended in 0.5% MC was orally administered to two male Wistar/ST rats fasted for about 16 hours in a dose of 3 mg/kg. Immediately after administration, urine was collected for 4 hours. After completion of collection of urine, urine remaining in the bladder was completely excreted by pressing the abdomen of the rat. The concentration of an unchanged compound in urine was measured by HPLC and expressed by a molar concentration (μM).

[3] = test system: male Wistar/ST rats (pyrazinamide model); test: Uricosuric action in rat pyrazinamide model; conditions: po, as above, but test substance 100 mg/kg

| Compound | response vs control in vivo at 30 mg/kg [1] | Concentration of unchanged compound in urine [2] | response vs control in vivo at 100 mg/kg [3] |
| --- | --- | --- | --- |
| CCc1cc(C(=O)N2CS(=O)(=O)c3ccccc32)cc(C#N)c1O [Example 12, 3-(3-cyano-5-ethyl-4-hydroxybenzoyl)-1,1-dioxo-2,3-dihydro-1,3-benzothiazole] | 187% | 15.8 µM | – |
| CSc1cc(C(=O)N2CS(=O)(=O)c3ccccc32)cc(Cl)c1O [Example 21, 3-(3-chloro-4-hydroxy-5-methylsulfanylbenzoyl)-1,1-dioxo-2,3-dihydro-1,3-benzothiazole] | 120% | 1.9 µM | – |
| N#Cc1cc(C(=O)N2CS(=O)(=O)c3ccccc32)cc(C2CC2)c1O [Example 13, 3-(3-cyano-5-cyclopropyl-4-hydroxybenzoyl)-1,1-dioxo-2,3-dihydro-1,3-benzothiazole] | 172% | 3.9 µM | – |
| N#Cc1cc(C(=O)N2CS(=O)(=O)c3ccccc32)cc(C(F)(F)F)c1O [Example 4, 3-(3-cyano-4-hydroxy-5-trifluoromethylbenzoyl)-1,1-dioxo-2,3-dihydro-1,3-benzothiazole] | 201% | 51.8 µM | – |
| O=C(c1cc(F)c(O)c(Cl)c1)N1CS(=O)(=O)c2ccccc21 [Example 19, 3-(3-chloro-5-fluoro-4-hydroxybenzoyl)-1,1-dioxo-2,3-dihydro-1,3-benzothiazole] | 129% | 55.2 µM | – |
| CCCN(CCC)S(=O)(=O)c1ccc(C(=O)O)cc1 [Probenecid, reference compound] | 111% | 0 µM | 171% |
| C#Cc1cc(C(=O)N2CS(=O)(=O)c3ccccc32)cc(C#N)c1O [Example 14, 3-(3-cyano-5-ethynyl-4-hydroxybenzoyl)-1,1-dioxo-2,3-dihydro-1,3-benzothiazole] | 164% | 119 µM | – |
| CCSc1cc(C(=O)N2CS(=O)(=O)c3ccccc32)cc(C#N)c1O [Example 34, 3-(3-cyano-5-ethylsulfanyl-4-hydroxybenzoyl)-1,1-dioxo-2,3-dihydro-1,3-benzothiazole] | 208% | 23.5 µM | – |
| O=C(c1cc(Cl)c(O)c(Cl)c1)N1CS(=O)(=O)c2ccccc21 [Example 1, 3-(3,5-dichloro-4-hydroxybenzoyl)-1,1-dioxo-2,3-dihydro-1,3-benzothiazole] | 169% | 9.8 µM | – |
| CSc1cc(C(=O)N2CS(=O)(=O)c3ccccc32)cc(C#N)c1O [Example 15, 3-(3-cyano-4-hydroxy-5-methylsulfanylbenzoyl)-1,1-dioxo-2,3-dihydro-1,3-benzothiazole] | 204% | 68.6 µM | – |
| O=C(c1cc(Cl)c(O)c(C(F)(F)F)c1)N1CS(=O)(=O)c2ccccc21 [Example 18, 3-(3-chloro-4-hydroxy-5-trifluoromethylbenzoyl)-1,1-dioxo-2,3-dihydro-1,3-benzothiazole] | 202% | 1 µM | – |
| N#Cc1cc(C(=O)N2CSc3ccccc32)cc(C(F)(F)F)c1O [Example 5, 3-(3-cyano-4-hydroxy-5-trifluoromethylbenzoyl)-2,3-dihydro-1,3-benzothiazole] | 136% | 1.1 µM | – |
| N#Cc1cc(C(=O)N2CS(=O)(=O)c3ccc(C(F)(F)F)cc32)cc(C(F)(F)F)c1O [Example 38, 3-(3-cyano-4-hydroxy-5-trifluoromethylbenzoyl)-1,1-dioxo-5-trifluoromethyl-2,3-dihydro-1,3-benzothiazole] | 180% | 16.4 µM | – |
| CN(C)C(=O)c1cc(C(=O)N2CS(=O)(=O)c3ccccc32)cc(C(F)(F)F)c1O [Example 27, 3-(3-dimethylcarbamoyl-4-hydroxy-5-trifluoromethylbenzoyl)-1,1-dioxo-2,3-dihydro-1,3-benzothiazole] | 146% | 30.6 µM | – |
| CC(C)Sc1cc(C(=O)N2CS(=O)(=O)c3ccccc32)cc(C#N)c1O [Example 35, 3-(3-cyano-4-hydroxy-5-isopropylsulfanylbenzoyl)-1,1-dioxo-2,3-dihydro-1,3-benzothiazole] | 140% | 1.5 µM | – |
| CCc1oc2ccccc2c1C(=O)c1cc(Br)c(O)c(Br)c1 [Benzbromarone, reference compound] | 114% | 0 µM | – |
| N#Cc1cc(C(=O)N2CS(=O)(=O)c3ccccc32)cc(Cl)c1O [Example 7, 3-(3-chloro-5-cyano-4-hydroxybenzoyl)-1,1-dioxo-2,3-dihydro-1,3-benzothiazole] | 178% | 125 µM | – |
